{
  "source": "paper PMC11842588",
  "about": "“A first-in-class selective inhibitor of ERK1/2 and ERK5 overcomes drug resistance with a single-molecule strategy” (Signal Transduction and Targeted Therapy, 2025)",
  "experiment_in_all_cases": "Kinase profiling",
  "assay_type_in_all_cases": "biochemical",
  "key": {"CDK16/cyclinY(h)": {"molecular_target": "T1, CDK16/cyclinY(h) (Homo sapiens, UniProt Q00536)", "T1 construct": "purchased Eurofins Cerep SA (KinaseProfiler)", "experimental": "(§1) 380 kinases inhibitory activities of SKLB-D18 were conducted by Eurofins Cerep SA. The result was illustrated by kinase tree (http://www.kinhub.org/kinmap/)."}, "TSSK2(h)": {"molecular_target": "T2, TSSK2(h) (Homo sapiens, UniProt Q96PF2)", "T2 construct": "purchased Eurofins Cerep SA (KinaseProfiler)", "experimental": "as §1"}, "PRK1(h)": {"molecular_target": "T3, PRK1(h) (Homo sapiens, UniProt Q16512)", "T3 construct": "purchased Eurofins Cerep SA (KinaseProfiler)", "experimental": "as §1"}, "IRE1(h)": {"molecular_target": "T4, IRE1(h) (Homo sapiens, UniProt O75460)", "T4 construct": "purchased Eurofins Cerep SA (KinaseProfiler)", "experimental": "as §1"}, "ULK1(h)": {"molecular_target": "T5, ULK1(h) (Homo sapiens, UniProt O75385)", "T5 construct": "purchased Eurofins Cerep SA (KinaseProfiler)", "T5 sequence (O75385 whole entry)": "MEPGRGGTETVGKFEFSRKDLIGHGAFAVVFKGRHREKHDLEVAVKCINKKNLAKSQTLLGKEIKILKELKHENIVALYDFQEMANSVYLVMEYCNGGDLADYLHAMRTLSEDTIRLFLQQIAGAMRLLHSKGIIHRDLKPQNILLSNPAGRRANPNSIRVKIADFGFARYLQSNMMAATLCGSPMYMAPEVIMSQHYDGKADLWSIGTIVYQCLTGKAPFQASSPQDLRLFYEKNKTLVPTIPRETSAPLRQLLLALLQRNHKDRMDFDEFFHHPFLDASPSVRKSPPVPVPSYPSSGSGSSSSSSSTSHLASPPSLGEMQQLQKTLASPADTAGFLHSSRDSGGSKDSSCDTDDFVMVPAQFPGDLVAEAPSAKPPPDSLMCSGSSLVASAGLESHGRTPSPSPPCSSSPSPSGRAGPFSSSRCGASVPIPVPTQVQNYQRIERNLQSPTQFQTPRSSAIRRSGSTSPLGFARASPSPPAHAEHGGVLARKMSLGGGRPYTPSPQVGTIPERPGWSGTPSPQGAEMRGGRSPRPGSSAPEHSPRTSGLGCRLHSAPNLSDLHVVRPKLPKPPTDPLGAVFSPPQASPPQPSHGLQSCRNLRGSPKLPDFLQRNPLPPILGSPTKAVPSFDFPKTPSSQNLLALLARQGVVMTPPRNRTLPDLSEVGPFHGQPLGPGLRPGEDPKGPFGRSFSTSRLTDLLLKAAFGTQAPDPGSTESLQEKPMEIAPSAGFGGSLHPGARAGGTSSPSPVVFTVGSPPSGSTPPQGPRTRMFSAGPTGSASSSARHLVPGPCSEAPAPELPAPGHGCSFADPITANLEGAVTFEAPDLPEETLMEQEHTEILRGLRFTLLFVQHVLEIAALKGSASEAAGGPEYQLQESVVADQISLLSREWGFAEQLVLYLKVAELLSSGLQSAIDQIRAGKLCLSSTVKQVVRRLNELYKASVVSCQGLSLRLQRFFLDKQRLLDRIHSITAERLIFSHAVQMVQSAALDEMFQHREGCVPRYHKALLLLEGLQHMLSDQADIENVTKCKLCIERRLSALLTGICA", "experimental": "as §1"}, "IGF-1R(h)": {"molecular_target": "T6, IGF-1R(h) (Homo sapiens, UniProt P08069)", "T6 construct": "purchased Eurofins Cerep SA (KinaseProfiler)", "experimental": "as §1"}, "TrkB(h)": {"molecular_target": "T7, TrkB(h) (Homo sapiens, UniProt Q16620)", "T7 construct": "purchased Eurofins Cerep SA (KinaseProfiler)", "experimental": "as §1"}, "MLCK(h)": {"molecular_target": "T8, MLCK(h) (Homo sapiens, UniProt Q9H1R3)", "T8 construct": "purchased Eurofins Cerep SA (KinaseProfiler)", "experimental": "as §1"}, "TAO3(h)": {"molecular_target": "T9, TAO3(h) (Homo sapiens, UniProt Q9H2K8)", "T9 construct": "purchased Eurofins Cerep SA (KinaseProfiler)", "experimental": "as §1"}, "eEF-2K(h)": {"molecular_target": "T10, eEF-2K(h) (Homo sapiens, UniProt O00418)", "T10 construct": "purchased Eurofins Cerep SA (KinaseProfiler)", "experimental": "as §1"}, "GRK1(h)": {"molecular_target": "T11, GRK1(h) (Homo sapiens, UniProt Q15835)", "T11 construct": "purchased Eurofins Cerep SA (KinaseProfiler)", "experimental": "as §1"}, "DCAMKL3(h)": {"molecular_target": "T12, DCAMKL3(h) (Homo sapiens, UniProt Q9C098)", "T12 construct": "purchased Eurofins Cerep SA (KinaseProfiler)", "T12 sequence (Q9C098 whole entry)": "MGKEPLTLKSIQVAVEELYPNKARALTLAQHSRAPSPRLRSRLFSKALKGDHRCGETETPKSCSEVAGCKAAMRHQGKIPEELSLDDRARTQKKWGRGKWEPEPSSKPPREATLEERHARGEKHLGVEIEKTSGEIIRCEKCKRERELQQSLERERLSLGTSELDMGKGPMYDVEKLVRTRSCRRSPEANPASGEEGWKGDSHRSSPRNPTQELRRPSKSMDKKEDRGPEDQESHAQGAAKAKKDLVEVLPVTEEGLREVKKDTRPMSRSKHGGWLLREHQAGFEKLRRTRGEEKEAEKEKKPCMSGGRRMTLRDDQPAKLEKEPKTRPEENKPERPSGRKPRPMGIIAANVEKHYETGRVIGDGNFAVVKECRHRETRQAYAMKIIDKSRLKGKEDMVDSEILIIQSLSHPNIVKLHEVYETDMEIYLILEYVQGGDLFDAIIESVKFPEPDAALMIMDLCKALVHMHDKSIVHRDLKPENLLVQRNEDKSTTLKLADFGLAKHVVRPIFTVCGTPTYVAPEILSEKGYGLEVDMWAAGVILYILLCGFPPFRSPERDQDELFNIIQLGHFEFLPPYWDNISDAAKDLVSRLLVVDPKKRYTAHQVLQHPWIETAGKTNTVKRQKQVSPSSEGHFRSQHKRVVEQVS", "experimental": "as §1"}, "TSSK1(h)": {"molecular_target": "T13, TSSK1(h) (Homo sapiens, UniProt Q9BXA7)", "T13 construct": "purchased Eurofins Cerep SA (KinaseProfiler)", "experimental": "as §1"}, "Tec(h) activated": {"molecular_target": "T14, Tec(h) activated (Homo sapiens, UniProt P42680)", "T14 construct": "purchased Eurofins Cerep SA (KinaseProfiler)", "experimental": "as §1"}, "EphB3(h)": {"molecular_target": "T15, EphB3(h) (Homo sapiens, UniProt P54753)", "T15 construct": "purchased Eurofins Cerep SA (KinaseProfiler)", "experimental": "as §1"}, "ASK1(h)": {"molecular_target": "T16, ASK1(h) (Homo sapiens, UniProt Q99683)", "T16 construct": "purchased Eurofins Cerep SA (KinaseProfiler)", "experimental": "as §1"}, "ATR/ATRIP(h)": {"molecular_target": "T17, ATR/ATRIP(h) (Homo sapiens, UniProt Q13535)", "T17 construct": "purchased Eurofins Cerep SA (KinaseProfiler)", "T17 sequence (Q13535 whole entry)": "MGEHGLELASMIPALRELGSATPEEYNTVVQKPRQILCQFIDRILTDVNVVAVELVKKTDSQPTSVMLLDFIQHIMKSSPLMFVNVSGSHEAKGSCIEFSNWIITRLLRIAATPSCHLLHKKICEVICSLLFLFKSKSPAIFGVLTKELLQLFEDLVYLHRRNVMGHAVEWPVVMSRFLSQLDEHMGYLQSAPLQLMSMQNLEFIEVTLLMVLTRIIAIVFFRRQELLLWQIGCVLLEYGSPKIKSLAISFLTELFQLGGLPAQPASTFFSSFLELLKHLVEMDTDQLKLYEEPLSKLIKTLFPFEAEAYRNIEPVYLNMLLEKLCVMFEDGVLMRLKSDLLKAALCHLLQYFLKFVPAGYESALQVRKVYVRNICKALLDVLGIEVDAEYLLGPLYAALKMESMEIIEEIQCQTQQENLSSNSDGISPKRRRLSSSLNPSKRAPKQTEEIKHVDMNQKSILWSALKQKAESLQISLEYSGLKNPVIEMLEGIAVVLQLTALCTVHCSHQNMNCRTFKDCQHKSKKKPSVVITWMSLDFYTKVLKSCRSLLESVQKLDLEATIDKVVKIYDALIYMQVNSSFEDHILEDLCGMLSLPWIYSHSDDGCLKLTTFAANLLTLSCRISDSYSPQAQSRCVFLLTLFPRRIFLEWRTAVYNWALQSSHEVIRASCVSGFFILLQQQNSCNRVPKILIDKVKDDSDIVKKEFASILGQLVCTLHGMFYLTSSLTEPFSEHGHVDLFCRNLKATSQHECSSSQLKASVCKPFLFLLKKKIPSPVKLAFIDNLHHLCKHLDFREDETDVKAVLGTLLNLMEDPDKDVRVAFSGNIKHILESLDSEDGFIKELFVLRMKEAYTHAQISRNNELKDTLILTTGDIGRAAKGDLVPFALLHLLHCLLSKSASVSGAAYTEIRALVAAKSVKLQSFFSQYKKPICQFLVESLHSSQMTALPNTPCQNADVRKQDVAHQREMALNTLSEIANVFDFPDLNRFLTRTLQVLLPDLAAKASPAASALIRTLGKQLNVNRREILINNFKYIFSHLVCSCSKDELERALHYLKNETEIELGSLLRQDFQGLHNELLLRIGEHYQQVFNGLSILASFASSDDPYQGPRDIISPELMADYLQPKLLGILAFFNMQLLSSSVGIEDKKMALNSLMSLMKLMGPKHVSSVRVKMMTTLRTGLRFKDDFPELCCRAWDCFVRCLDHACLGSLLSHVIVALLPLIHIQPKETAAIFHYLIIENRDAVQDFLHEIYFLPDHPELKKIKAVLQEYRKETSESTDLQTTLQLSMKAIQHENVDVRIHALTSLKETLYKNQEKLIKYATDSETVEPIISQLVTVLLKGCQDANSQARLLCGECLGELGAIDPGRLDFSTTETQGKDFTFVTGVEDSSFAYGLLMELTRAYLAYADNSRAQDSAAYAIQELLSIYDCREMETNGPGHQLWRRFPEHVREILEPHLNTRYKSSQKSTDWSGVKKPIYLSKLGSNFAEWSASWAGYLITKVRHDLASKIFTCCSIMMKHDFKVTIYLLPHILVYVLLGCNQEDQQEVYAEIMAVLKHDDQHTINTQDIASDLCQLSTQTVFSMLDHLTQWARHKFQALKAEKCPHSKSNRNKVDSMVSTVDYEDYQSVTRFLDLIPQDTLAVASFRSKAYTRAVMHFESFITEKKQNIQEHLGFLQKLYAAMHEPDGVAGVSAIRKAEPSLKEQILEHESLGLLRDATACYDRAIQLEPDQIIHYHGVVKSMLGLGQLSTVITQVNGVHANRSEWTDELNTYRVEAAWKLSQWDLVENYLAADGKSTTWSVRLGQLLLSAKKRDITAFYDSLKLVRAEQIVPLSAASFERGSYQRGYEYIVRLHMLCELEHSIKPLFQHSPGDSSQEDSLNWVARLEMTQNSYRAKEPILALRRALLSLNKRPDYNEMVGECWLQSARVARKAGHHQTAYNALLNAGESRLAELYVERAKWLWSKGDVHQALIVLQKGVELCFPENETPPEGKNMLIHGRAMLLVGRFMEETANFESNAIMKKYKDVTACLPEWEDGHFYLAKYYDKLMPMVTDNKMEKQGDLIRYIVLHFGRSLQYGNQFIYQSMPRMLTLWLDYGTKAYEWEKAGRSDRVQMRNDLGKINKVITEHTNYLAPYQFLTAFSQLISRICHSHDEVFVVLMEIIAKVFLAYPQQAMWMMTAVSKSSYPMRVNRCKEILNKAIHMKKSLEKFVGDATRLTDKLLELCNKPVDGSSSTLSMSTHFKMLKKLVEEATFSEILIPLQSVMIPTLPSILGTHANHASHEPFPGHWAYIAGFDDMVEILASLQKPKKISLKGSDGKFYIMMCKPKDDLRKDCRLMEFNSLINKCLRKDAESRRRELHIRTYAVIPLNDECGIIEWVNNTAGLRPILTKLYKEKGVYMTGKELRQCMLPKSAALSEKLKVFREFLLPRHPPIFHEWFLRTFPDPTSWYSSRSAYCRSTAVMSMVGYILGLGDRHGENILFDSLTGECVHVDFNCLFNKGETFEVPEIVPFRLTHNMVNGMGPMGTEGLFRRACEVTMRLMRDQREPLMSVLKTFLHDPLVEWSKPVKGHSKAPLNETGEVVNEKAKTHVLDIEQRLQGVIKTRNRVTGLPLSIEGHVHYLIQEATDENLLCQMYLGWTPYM", "T17 sequence (Q8WXE1 whole entry partner)": "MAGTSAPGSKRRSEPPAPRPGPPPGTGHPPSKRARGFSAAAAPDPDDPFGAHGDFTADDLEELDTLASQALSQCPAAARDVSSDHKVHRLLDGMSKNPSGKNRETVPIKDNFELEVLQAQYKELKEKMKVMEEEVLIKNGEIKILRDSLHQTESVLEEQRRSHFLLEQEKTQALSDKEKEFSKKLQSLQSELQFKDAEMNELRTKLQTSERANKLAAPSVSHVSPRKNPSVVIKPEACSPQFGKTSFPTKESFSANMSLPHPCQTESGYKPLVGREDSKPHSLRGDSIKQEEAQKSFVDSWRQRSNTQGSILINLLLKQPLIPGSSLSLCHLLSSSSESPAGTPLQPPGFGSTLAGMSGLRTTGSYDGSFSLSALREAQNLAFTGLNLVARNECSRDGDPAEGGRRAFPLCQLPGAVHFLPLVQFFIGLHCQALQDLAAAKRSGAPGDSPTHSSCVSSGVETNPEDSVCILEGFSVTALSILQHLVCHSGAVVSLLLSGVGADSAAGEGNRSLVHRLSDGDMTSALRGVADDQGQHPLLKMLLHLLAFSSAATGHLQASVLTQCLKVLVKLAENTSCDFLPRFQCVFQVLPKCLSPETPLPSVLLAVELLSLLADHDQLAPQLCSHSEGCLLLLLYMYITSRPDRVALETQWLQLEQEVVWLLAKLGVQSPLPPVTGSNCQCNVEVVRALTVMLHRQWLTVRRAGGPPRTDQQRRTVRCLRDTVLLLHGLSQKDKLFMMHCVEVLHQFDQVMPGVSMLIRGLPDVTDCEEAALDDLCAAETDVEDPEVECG", "experimental": "as §1"}, "SRPK2(h)": {"molecular_target": "T18, SRPK2(h) (Homo sapiens, UniProt P78362)", "T18 construct": "purchased Eurofins Cerep SA (KinaseProfiler)", "experimental": "as §1"}, "TTK(h)": {"molecular_target": "T19, TTK(h) (Homo sapiens, UniProt P33981)", "T19 construct": "purchased Eurofins Cerep SA (KinaseProfiler)", "experimental": "as §1"}, "EphA5(h)": {"molecular_target": "T20, EphA5(h) (Homo sapiens, UniProt P54756)", "T20 construct": "purchased Eurofins Cerep SA (KinaseProfiler)", "experimental": "as §1"}, "MSSK1(h)": {"molecular_target": "T21, MSSK1(h) (Homo sapiens, UniProt Q9UPE1)", "T21 construct": "purchased Eurofins Cerep SA (KinaseProfiler)", "experimental": "as §1"}, "SRPK1(h)": {"molecular_target": "T22, SRPK1(h) (Homo sapiens, UniProt Q96SB4)", "T22 construct": "purchased Eurofins Cerep SA (KinaseProfiler)", "experimental": "as §1"}, "Flt3(h)": {"molecular_target": "T23, Flt3(h) (Homo sapiens, UniProt P36888)", "T23 construct": "purchased Eurofins Cerep SA (KinaseProfiler)", "experimental": "as §1"}, "STK16(h)": {"molecular_target": "T24, STK16(h) (Homo sapiens, UniProt O75716)", "T24 construct": "purchased Eurofins Cerep SA (KinaseProfiler)", "experimental": "as §1"}, "TrkC(h)": {"molecular_target": "T25, TrkC(h) (Homo sapiens, UniProt Q16288)", "T25 construct": "purchased Eurofins Cerep SA (KinaseProfiler)", "experimental": "as §1"}, "JNK3(h)": {"molecular_target": "T26, JNK3(h) (Homo sapiens, UniProt P53779)", "T26 construct": "purchased Eurofins Cerep SA (KinaseProfiler)", "experimental": "as §1"}, "Mer(h)": {"molecular_target": "T27, Mer(h) (Homo sapiens, UniProt Q12866)", "T27 construct": "purchased Eurofins Cerep SA (KinaseProfiler)", "experimental": "as §1"}, "MEKK3(h)": {"molecular_target": "T28, MEKK3(h) (Homo sapiens, UniProt Q99759)", "T28 construct": "purchased Eurofins Cerep SA (KinaseProfiler)", "experimental": "as §1"}, "ErbB2(h)": {"molecular_target": "T29, ErbB2(h) (Homo sapiens, UniProt P04626)", "T29 construct": "purchased Eurofins Cerep SA (KinaseProfiler)", "experimental": "as §1"}, "SBK1(h)": {"molecular_target": "T30, SBK1(h) (Homo sapiens, UniProt Q52WX2)", "T30 construct": "purchased Eurofins Cerep SA (KinaseProfiler)", "experimental": "as §1"}, "FGFR4(h)": {"molecular_target": "T31, FGFR4(h) (Homo sapiens, UniProt P22455)", "T31 construct": "purchased Eurofins Cerep SA (KinaseProfiler)", "experimental": "as §1"}, "VRK2(h)": {"molecular_target": "T32, VRK2(h) (Homo sapiens, UniProt Q86Y07)", "T32 construct": "purchased Eurofins Cerep SA (KinaseProfiler)", "experimental": "as §1"}, "MST1(h)": {"molecular_target": "T33, MST1(h) (Homo sapiens, UniProt Q13043)", "T33 construct": "purchased Eurofins Cerep SA (KinaseProfiler)", "experimental": "as §1"}, "CDK7/cyclinH/MAT1(h)": {"molecular_target": "T34, CDK7/cyclinH/MAT1(h) (Homo sapiens, UniProt P50613)", "T34 construct": "purchased Eurofins Cerep SA (KinaseProfiler)", "experimental": "as §1"}, "GRK7(h)": {"molecular_target": "T35, GRK7(h) (Homo sapiens, UniProt Q8WTQ7)", "T35 construct": "purchased Eurofins Cerep SA (KinaseProfiler)", "experimental": "as §1"}, "PKCε(h)": {"molecular_target": "T36, PKCε(h) (Homo sapiens, UniProt Q02156)", "T36 construct": "purchased Eurofins Cerep SA (KinaseProfiler)", "experimental": "as §1"}, "PKCη(h)": {"molecular_target": "T37, PKCη(h) (Homo sapiens, UniProt P24723)", "T37 construct": "purchased Eurofins Cerep SA (KinaseProfiler)", "experimental": "as §1"}, "Met(h)": {"molecular_target": "T38, Met(h) (Homo sapiens, UniProt P08581)", "T38 construct": "purchased Eurofins Cerep SA (KinaseProfiler)", "experimental": "as §1"}, "MLK1(h)": {"molecular_target": "T39, MLK1(h) (Homo sapiens, UniProt P80192)", "T39 construct": "purchased Eurofins Cerep SA (KinaseProfiler)", "experimental": "as §1"}, "TTBK2(h)": {"molecular_target": "T40, TTBK2(h) (Homo sapiens, UniProt Q6IQ55)", "T40 construct": "purchased Eurofins Cerep SA (KinaseProfiler)", "experimental": "as §1"}, "ROCK-I(h)": {"molecular_target": "T41, ROCK-I(h) (Homo sapiens, UniProt Q13464)", "T41 construct": "purchased Eurofins Cerep SA (KinaseProfiler)", "experimental": "as §1"}},
  "data": [
    {"smiles": "CN(C)Cc1cccc(Nc2ncc(Cl)c(-c3csc(C(=O)NN4CCOCC4)c3)n2)c1", "note": "[SKLB-D18, 4-(5-chloro-2-((3-((dimethylamino)methyl)phenyl)amino)pyrimidin-4-yl)-N-morpholinothiophene-2-carboxamide]", "values": [
      {"measurement": "inhibition at 1 µM", "setting": "CDK16/cyclinY(h)", "result": 66, "unit": "%"},
      {"measurement": "inhibition at 1 µM", "setting": "TSSK2(h)", "result": -2, "unit": "%"},
      {"measurement": "inhibition at 1 µM", "setting": "PRK1(h)", "result": 73, "unit": "%"},
      {"measurement": "inhibition at 1 µM", "setting": "IRE1(h)", "result": 2, "unit": "%"},
      {"measurement": "inhibition at 1 µM", "setting": "ULK1(h)", "result": 49, "unit": "%"},
      {"measurement": "inhibition at 1 µM", "setting": "IGF-1R(h)", "result": 7, "unit": "%"},
      {"measurement": "inhibition at 1 µM", "setting": "TrkB(h)", "result": 46, "unit": "%"},
      {"measurement": "inhibition at 1 µM", "setting": "MLCK(h)", "result": 16, "unit": "%"},
      {"measurement": "inhibition at 1 µM", "setting": "TAO3(h)", "result": 36, "unit": "%"},
      {"measurement": "inhibition at 1 µM", "setting": "eEF-2K(h)", "result": -2, "unit": "%"},
      {"measurement": "inhibition at 1 µM", "setting": "GRK1(h)", "result": 9, "unit": "%"},
      {"measurement": "inhibition at 1 µM", "setting": "DCAMKL3(h)", "result": 66, "unit": "%"},
      {"measurement": "inhibition at 1 µM", "setting": "TSSK1(h)", "result": 60, "unit": "%"},
      {"measurement": "inhibition at 1 µM", "setting": "Tec(h) activated", "result": 8, "unit": "%"},
      {"measurement": "inhibition at 1 µM", "setting": "EphB3(h)", "result": 3, "unit": "%"},
      {"measurement": "inhibition at 1 µM", "setting": "ASK1(h)", "result": -5, "unit": "%"},
      {"measurement": "inhibition at 1 µM", "setting": "ATR/ATRIP(h)", "result": 13, "unit": "%"},
      {"measurement": "inhibition at 1 µM", "setting": "SRPK2(h)", "result": 9, "unit": "%"},
      {"measurement": "inhibition at 1 µM", "setting": "TTK(h)", "result": 34, "unit": "%"},
      {"measurement": "inhibition at 1 µM", "setting": "EphA5(h)", "result": 3, "unit": "%"},
      {"measurement": "inhibition at 1 µM", "setting": "MSSK1(h)", "result": -19, "unit": "%"},
      {"measurement": "inhibition at 1 µM", "setting": "SRPK1(h)", "result": -2, "unit": "%"},
      {"measurement": "inhibition at 1 µM", "setting": "Flt3(h)", "result": 55, "unit": "%"},
      {"measurement": "inhibition at 1 µM", "setting": "STK16(h)", "result": 85, "unit": "%"},
      {"measurement": "inhibition at 1 µM", "setting": "TrkC(h)", "result": 43, "unit": "%"},
      {"measurement": "inhibition at 1 µM", "setting": "JNK3(h)", "result": 66, "unit": "%"},
      {"measurement": "inhibition at 1 µM", "setting": "Mer(h)", "result": 69, "unit": "%"},
      {"measurement": "inhibition at 1 µM", "setting": "MEKK3(h)", "result": 8, "unit": "%"},
      {"measurement": "inhibition at 1 µM", "setting": "ErbB2(h)", "result": -3, "unit": "%"},
      {"measurement": "inhibition at 1 µM", "setting": "SBK1(h)", "result": 55, "unit": "%"},
      {"measurement": "inhibition at 1 µM", "setting": "FGFR4(h)", "result": 8, "unit": "%"},
      {"measurement": "inhibition at 1 µM", "setting": "VRK2(h)", "result": -3, "unit": "%"},
      {"measurement": "inhibition at 1 µM", "setting": "MST1(h)", "result": 45, "unit": "%"},
      {"measurement": "inhibition at 1 µM", "setting": "CDK7/cyclinH/MAT1(h)", "result": 57, "unit": "%"},
      {"measurement": "inhibition at 1 µM", "setting": "GRK7(h)", "result": 5, "unit": "%"},
      {"measurement": "inhibition at 1 µM", "setting": "PKCε(h)", "result": 14, "unit": "%"},
      {"measurement": "inhibition at 1 µM", "setting": "PKCη(h)", "result": 16, "unit": "%"},
      {"measurement": "inhibition at 1 µM", "setting": "Met(h)", "result": 61, "unit": "%"},
      {"measurement": "inhibition at 1 µM", "setting": "MLK1(h)", "result": 61, "unit": "%"},
      {"measurement": "inhibition at 1 µM", "setting": "TTBK2(h)", "result": 0, "unit": "%"},
      {"measurement": "inhibition at 1 µM", "setting": "ROCK-I(h)", "result": 10, "unit": "%"}
    ]}
  ]
}
